The subject of the experiment is RMP1. Briefly: Rapamycin sensitive signaling on human RMP1: immunoblot of RMP in insulin-induced HEK293 cells. The format is cell-based. Conditions: serum-deprived HEK293 cells, 50 nM insulin, after 1 h induction, maintained throughout 8 h, no rapamycin. As to the method:
Human Embryonic kidney (HEK293) cells are grown in DMEM+10% FCS. Exponentially growing HEK 293 cells are deprived of serum overnight, and then induced with 50 nM insulin in the presence or absence of 20 nM rapamycin. Protein extracts were prepared from cells harvested at 0 h, 1 h, 2 h, 4 h and 8 h after insulin induction. The cell extracts were subjected to SDS-polyacrylamide gel electrophoresis and the resulting gels were analyzed by immuno-blotting using a rabbit polyclonal anti-human RMP antibody. Antibodies specific for RMP are easily prepared using standard laboratory practices. A secondary antibody specific for rabbit antibodies, labelled was used to visualize RMP on the immunoblot using routine procedures.
In the presence of insulin and amino acids (in the culture medium in this example), RMP is present as a slower migrating form, indicating a phosphorylated form. Under these conditions, the cells continue to synthesize […]. With the addition of rapamycin, RMP is present as a fast migrating form and blocks the synthesis of […]

For the substance insulin, the “slower migrating form of RMP” value was “induced”.

Source of the values: patent US20040028684A1, “Cancer diagnosis and assays for screening anti-cancer agents” (priority 2000, published 2004).
